Experimental data taken from the NIST ThermoML archive (doi:10.1016/j.jct.2014.04.003).
± gives the expanded uncertainty stated by the source.

Assay: molar enthalpy of vaporization or sublimation
Details: 298.15 K; Liquid; Static calorimetry

Cc1ccc(C)n1C [1,2,5-trimethylpyrrole]
molar enthalpy: 50.7 ± 1.3 kJ/mol
